Measurements published in patent publication US11406655B2, “Once-daily treatment of pulmonary fibrosis” (Galecto Biotech AB, priority 2015, dated 2022).

Experiments:
[1] = First in Human single ascending dose phase I study: safety and tolerability; format: in vivo
Method: (§1) This study was a randomized, double-blind, single center, placebo-controlled, single ascending dose (SAD), phase I study to assess the safety, tolerability, PK (pharmacokinetics) and PD (pharmacodynamics) of the compound of formula I in 36 healthy male volunteers (HV's). 6 dose cohorts of 6 subjects were evaluated using a 4:2 ratio (active:placebo). The compound of formula I was delivered to the lungs of HV's using the RS01 Monodose Dry Powder Inhaler (Plastiape) at the following 6 doses: 0.15 mg, 1.5 mg, 3 mg, 10 mg, 20 mg and 50 mg. The 0.15 mg, 1.5 mg and 3 mg dose was a 3% w/w lactose blend, whereas the 10 mg, 20 mg and 50 mg dose was formulated as neat material. The specific capsule filling weights were 5 mg for the 0.15 mg dose, 50 mg for the 1.5 mg dose, 5 mg for the 10 mg dose and 50 mg for the 50 mg dose. HV's were housed overnight and vital signs, EKG, physical exam, urinalysis and laboratory bloods followed for 14 days. PK blood sampling was taken prior to dosing and then at intervals up to 48 hrs post-dose. Plasma samples for drug concentration measurements were analyzed by the Bioanalytical Unit at Simbec (UK). PK variables were determined using the non-compartmental analysis option in the software WinNONLIN 6.3 from Certara based in Princeton, N.J. 08540 (www.certara.com).

[2] = First in Human single ascending dose phase I study: plasma pharmacokinetics after inhalation; format: in vivo
Method: as §1

[3] = GLP toxicokinetic studies, murine intravenous dosing; format: in vivo
[4] = Radioisotope studies of lung deposition in mice; format: in vivo
[5] = Particle size (MMAD) of the dry powder used in the study; format: physicochemical; details: dry powder of the study in the Experimental section
Method: When the compound of formula (I) is formulated as a dry powder it may be present in a suitable particle size selected from a mean mass aerodynamic diameter (MMAD) between 0.1 and 20 μm, such as a MMAD between 0.5 and 10 μm, such as between 1 and 5 μm, typically between 2 and 3 μm. In the study described in the Experimental section below the MMAD was measured to 2.5 μm.

Galectin-3 = Galectin-3 (Homo sapiens, UniProt P17931); details: 3 mg inhaled dose; from Cmax, mouse lung/circulation ratio and ex-vivo data in human derived macrophages
Sequence of Galectin-3 (P17931 whole entry): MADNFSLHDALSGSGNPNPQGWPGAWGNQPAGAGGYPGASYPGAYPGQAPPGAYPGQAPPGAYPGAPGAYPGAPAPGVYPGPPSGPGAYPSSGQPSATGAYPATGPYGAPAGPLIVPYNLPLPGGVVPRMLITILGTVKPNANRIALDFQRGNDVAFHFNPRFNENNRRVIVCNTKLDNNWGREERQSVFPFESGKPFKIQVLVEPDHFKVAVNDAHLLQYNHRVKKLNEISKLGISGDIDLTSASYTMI

- dose dependence of drug concentrations based on Cmax and AUC ([2]; inhaled single ascending doses 0.15-50 mg): exhibited dose proportionality
- Tmax ([2]; male, human, inhaled or intranasal, inhaled single dose, independent of dose): 0.8 to 3 h
- half-life ([2]; male, human, inhaled or intranasal, inhaled single dose, read-out: t½ (converted)): 12 h
- concentration in the lung relative to the circulation [4]: fifty times greater
- mean mass aerodynamic diameter (MMAD) [5]: 2.5 μm
- local concentration in the lung in man in excess of that required to suppress Galectin-3 in lung target cells (Galectin-3): 2 fold
SMILES: OC[C@H]1O[C@@H](S[C@@H]2O[C@H](CO)[C@H](O)[C@H](n3cc(-c4cccc(F)c4)nn3)[C@H]2O)[C@H](O)[C@@H](n2cc(-c3cccc(F)c3)nn2)[C@H]1O [compound of formula I, bis (3-deoxy-3-(3-fluorophenyl-1H-1,2,3-triazol-1-yl)-β-D-galactopyranosyl)-sulfane]
- tolerability ([1]; healthy male volunteers, single inhaled dose, all 6 doses (0.15 mg to 50 mg), RS01 dry powder inhaler): extremely well tolerated
- adverse events (severity) ([1]; healthy male volunteers, headache, cough and dose-related parageusia (neat blend only), self-limiting): only mild in nature
- changes from baseline in EKG, vital signs, bloods and urinalysis ([1]; up to 2 weeks post-dose): no significant changes from baseline
- fraction of compound found in the feces [3]: ~90%
